Results taken from paper PMC10837402, “Unnatural amino acid substitutions to improve in vivo stability and tumor uptake of ^68Ga-labeled GRPR-targeted TacBOMB2 derivatives for cancer imaging with positron emission tomography” (EJNMMI Radiopharmacy and Chemistry, 2024).
Values joined by “and” are separate entries in the source; they are usually repeats but may differ in a detail not shown here. Identical values can stand only once. Starred links: 1 amine or outer side, 2 acyl side, 3 side chain; linkers in the order of their positions; H or OH if unused. Non-standard residues stand in square brackets, D forms with d. Residues, ends and D or L forms follow the SMILES beside them. *: point of attachment. DOTA = O=C(O)CN1CCN(CC(=O)O)CCN(CC(=O)*)CCN(CC(=O)O)CC1; NMeH = CN[C@@H](Cc1c[nH]cn1)C(=O)O; X1 = O=C(CN1CCC(N[*:1])CC1)[*:2]; Tle = CC(C)(C)[C@H](N)C(=O)O; hSer = N[C@@H](CCO)C(=O)O; Thz = O=C(O)[C@@H]1CSCN1; Abu = CC[C@H](N)C(=O)O; Aib = CC(C)(N)C(=O)O

Key:
GRPR [1] = target: T1, GRPR (Homo sapiens, UniProt P30550); assay: Fluorometric calcium release assay in PC-3 cells; assay type: cell-based; settings: 50 nM ligand
T1 construct: generated using GRPR-expressing PC-3 cells; endogenous in cells; host or cells: PC-3 cells
Protocol: The growth medium was removed and replaced with a loading buffer containing a calcium-sensitive dye (FLIPR Calcium 6 assay kit from Molecular Devices, San Jose, CA, USA). After incubated at 37 °C for 30 min, the plates were placed in a FlexStation 3 microplate reader (Molecular Devices). Tested ligands (50 nM) or DPBS (negative control) were added to the cells and the fluorescent signals were acquired for 2 min. Agonistic/antagonistic properties of the tested ligands were determined based on the relative fluorescent unit (RFU = max – min) of their generated fluorescent signals.

GRPR [2] = target: T1, GRPR; assay: In vitro competition binding assay using PC-3 cells and [^125I-Tyr^4]Bombesin as the radioligand; settings: PC-3 cells, mean ± SD, n = 3, read-out: GRPR binding affinity (Ki)
Protocol: [2022], [2023]; Bratanovic et al. [2022]). The assays were conducted in triplicate with varied concentrations (10 μM to 1 pM) of tested ligands. […] The growth medium was replaced with 400 μL of reaction medium (RPMI 1640 containing 2 mg/mL BSA, and 20 mM HEPES), then the plates were incubated at 37 °C for 60 min. […] Data were analyzed using nonlinear regression with GraphPad (San Diego, CA, USA) Prism 8 software.

T1 sequence (P30550 whole entry): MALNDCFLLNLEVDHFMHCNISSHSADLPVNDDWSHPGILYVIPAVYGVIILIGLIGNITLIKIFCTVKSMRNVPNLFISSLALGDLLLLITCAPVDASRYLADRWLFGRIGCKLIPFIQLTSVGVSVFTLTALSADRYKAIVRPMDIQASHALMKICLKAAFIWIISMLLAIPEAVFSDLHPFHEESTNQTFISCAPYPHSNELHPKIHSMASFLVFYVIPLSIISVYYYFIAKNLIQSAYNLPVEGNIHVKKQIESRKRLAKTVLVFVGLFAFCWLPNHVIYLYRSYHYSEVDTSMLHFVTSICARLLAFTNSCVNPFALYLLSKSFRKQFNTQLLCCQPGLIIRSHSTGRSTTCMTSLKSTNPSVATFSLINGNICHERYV

Compound | Ca^2+ efflux (relative fluorescence units, RFU = max – min) (GRPR [1]) [RFUs] | Ki (GRPR [2])
Nc1ncnc2c1ncn2[C@@H]1O[C@H](COP(=O)(O)OP(=O)(O)OP(=O)(O)O)[C@@H](O)[C@H]1O [ATP, reference compound] | 253 ± 46.5 | 
CC(C)C[C@H](NC(=O)[C@H](Cc1c[nH]cn1)NC(=O)CNC(=O)[C@@H](NC(=O)[C@H](C)NC(=O)[C@H](Cc1c[nH]c2ccccc12)NC(=O)[C@H](CCC(N)=O)NC(=O)[C@@H](Cc1ccccc1)NC(=O)CN1CCC(NC(=O)CN2CCN(CC(=O)O)CCN(CC(=O)O)CCN(CC(=O)O)CC2)CC1)C(C)(C)C)C(=O)N1CSC[C@H]1C(N)=O [Ga-LW01108, Ga-DOTA-Pip-D-Phe-Gln-Trp-Ala-Tle-Gly-His-Leu-Thz-NH2] | 549 ± 46.7 | 
CC(C)C[C@H](NC(=O)[C@H](Cc1c[nH]cn1)N(C)C(=O)CNC(=O)[C@@H](NC(=O)[C@H](C)NC(=O)[C@H](Cc1c[nH]c2ccccc12)NC(=O)[C@H](CCC(N)=O)NC(=O)[C@@H](Cc1ccccc1)NC(=O)CN1CCC(NC(=O)CN2CCN(CC(=O)O)CCN(CC(=O)O)CCN(CC(=O)O)CC2)CC1)C(C)(C)C)C(=O)N1CSC[C@H]1C(N)=O [Ga-LW01110, Ga-DOTA-Pip-D-Phe-Gln-Trp-Ala-Tle-Gly-NMe-His-Leu-Thz-NH2] | 521 ± 43.7 | 
CC(C)C[C@H](NC(=O)[C@H](Cc1c[nH]cn1)N(C)C(=O)CNC(=O)[C@@H](NC(=O)[C@H](C)NC(=O)[C@H](Cc1c[nH]c2ccccc12)NC(=O)[C@H](Cc1c[nH]cn1)NC(=O)[C@@H](Cc1ccccc1)NC(=O)CN1CCC(NC(=O)CN2CCN(CC(=O)O)CCN(CC(=O)O)CCN(CC(=O)O)CC2)CC1)C(C)(C)C)C(=O)N1CSC[C@H]1C(N)=O [Ga-LW01142, Ga-DOTA-Pip-D-Phe-His-Trp-Ala-Tle-Gly-NMe-His-Leu-Thz-NH2] ({DOTA}-[X1][dF]HWA[Tle]G[NMeH]L[Thz]-NH2) | 559 ± 96.2 | 
Cc1ccc2[nH]cc(C[C@H](NC(=O)[C@H](CCC(N)=O)NC(=O)[C@@H](Cc3ccccc3)NC(=O)CN3CCC(NC(=O)CN4CCN(CC(=O)O)CCN(CC(=O)O)CCN(CC(=O)O)CC4)CC3)C(=O)N[C@@H](C)C(=O)N[C@H](C(=O)NCC(=O)N[C@@H](Cc3c[nH]cn3)C(=O)N[C@@H](CC(C)C)C(=O)N3CSC[C@H]3C(N)=O)C(C)C)c2c1 [Ga-LW02023, Ga-DOTA-Pip-D-Phe-Gln-5-Me-Trp-Ala-Val-Gly-His-Leu-Thz-NH2] | 312 ± 45.9 | 
Cc1[nH]c2ccccc2c1C[C@H](NC(=O)[C@H](CCC(N)=O)NC(=O)[C@@H](Cc1ccccc1)NC(=O)CN1CCC(NC(=O)CN2CCN(CC(=O)O)CCN(CC(=O)O)CCN(CC(=O)O)CC2)CC1)C(=O)N[C@@H](C)C(=O)N[C@H](C(=O)NCC(=O)N[C@@H](Cc1c[nH]cn1)C(=O)N[C@@H](CC(C)C)C(=O)N1CSC[C@H]1C(N)=O)C(C)C [Ga-LW02025, Ga-DOTA-Pip-D-Phe-Gln-2-Me-Trp-Ala-Val-Gly-His-Leu-Thz-NH2] | 197 ± 50.3 | 

The remaining lines, values ahead:

Ca^2+ efflux (relative fluorescence units, RFU = max – min) (GRPR [1]) [RFUs] | Ki (GRPR [2]) | Compound
 | > 150 nM and 2410 nM | CC(C)C[C@H](NC(=O)[C@H](Cc1c[nH]cn1)NC(=O)CNC(=O)[C@@H](NC(=O)C(C)(C)NC(=O)[C@H](Cc1c[nH]c2ccccc12)NC(=O)[C@H](CCC(N)=O)NC(=O)[C@H](N)Cc1ccccc1)C(C)C)C(=O)N1CSC[C@H]1C(N)=O [LW01075, D-Phe-Gln-Trp-Aib-Val-Gly-His-Leu-Thz-NH2] (H-[dF]QW[Aib]VGHL[Thz]-NH2)
 | 27.2 ± 8.62 nM | CC[C@H](NC(=O)[C@H](Cc1c[nH]c2ccccc12)NC(=O)[C@H](CCC(N)=O)NC(=O)[C@H](N)Cc1ccccc1)C(=O)N[C@H](C(=O)NCC(=O)N[C@@H](Cc1c[nH]cn1)C(=O)N[C@@H](CC(C)C)C(=O)N1CSC[C@H]1C(N)=O)C(C)C [LW01078, D-Phe-Gln-Trp-2-Abu-Val-Gly-His-Leu-Thz-NH2] (H-[dF]QW[Abu]VGHL[Thz]-NH2)
 | > 150 nM and 406 nM | CC[C@H](NC(=O)[C@H](C)NC(=O)[C@H](Cc1c[nH]c2ccccc12)NC(=O)[C@H](CCC(N)=O)NC(=O)[C@H](N)Cc1ccccc1)C(=O)NCC(=O)N[C@@H](Cc1c[nH]cn1)C(=O)N[C@@H](CC(C)C)C(=O)N1CSC[C@H]1C(N)=O [LW01083, D-Phe-Gln-Trp-Ala-2-Abu-Gly-His-Leu-Thz-NH2]
 | > 150 nM and 829 nM | CC(C)C[C@H](NC(=O)[C@H](Cc1c[nH]cn1)NC(=O)CNC(=O)[C@@H](NC(=O)[C@H](C)NC(=O)[C@H](Cc1c[nH]c2cc(Cl)ccc12)NC(=O)[C@H](CCC(N)=O)NC(=O)[C@H](N)Cc1ccccc1)C(C)C)C(=O)N1CSC[C@H]1C(N)=O [LW01137, D-Phe-Gln-6-Cl-Trp-Ala-Val-Gly-His-Leu-Thz-NH2]
 | > 150 nM and 1450 nM | Cc1ccc2c(C[C@H](NC(=O)[C@H](CCC(N)=O)NC(=O)[C@H](N)Cc3ccccc3)C(=O)N[C@@H](C)C(=O)N[C@H](C(=O)NCC(=O)N[C@@H](Cc3c[nH]cn3)C(=O)N[C@@H](CC(C)C)C(=O)N3CSC[C@H]3C(N)=O)C(C)C)c[nH]c2c1 [LW01171, D-Phe-Gln-6-Me-Trp-Ala-Val-Gly-His-Leu-Thz-NH2]
 | > 150 nM and 2030 nM | CC(C)C[C@H](NC(=O)[C@H](Cc1c[nH]cn1)NC(=O)CNC(=O)[C@@H](NC(=O)[C@H](C)NC(=O)[C@H](Cc1c[nH]c2ccc(O)cc12)NC(=O)[C@H](CCC(N)=O)NC(=O)[C@H](N)Cc1ccccc1)C(C)C)C(=O)N1CSC[C@H]1C(N)=O [LW01173, D-Phe-Gln-5-OH-Trp-Ala-Val-Gly-His-Leu-Thz-NH2]
 | > 10000 nM | CC(C)C[C@H](NC(=O)[C@H](Cc1c[nH]cn1)NC(=O)CNC(=O)[C@@H](NC(=O)[C@H](C)NC(=O)[C@H]1Cc2c([nH]c3ccccc23)CN1C(=O)[C@H](CCC(N)=O)NC(=O)[C@H](N)Cc1ccccc1)C(C)C)C(=O)N1CSC[C@H]1C(N)=O [LW01191, D-Phe-Gln-D-Tpi-Ala-Val-Gly-His-Leu-Thz-NH2]
 | > 10000 nM | CC(C)=C(NC(=O)[C@H](C)NC(=O)[C@H](Cc1c[nH]c2ccccc12)NC(=O)[C@H](CCC(N)=O)NC(=O)[C@H](N)Cc1ccccc1)C(=O)NCC(=O)N[C@@H](Cc1c[nH]cn1)C(=O)N[C@@H](CC(C)C)C(=O)N1CSC[C@H]1C(N)=O [LW02011, D-Phe-Gln-Trp-Ala-2,3-dehydro-Val-Gly-His-Leu-Thz-NH2]
 | > 150 nM | CC(C)C[C@H](NC(=O)[C@H](Cc1c[nH]cn1)NC(=O)CNC(=O)[C@@H](NC(=O)[C@H](C)NC(=O)[C@H](Cc1c[nH]c2ncccc12)NC(=O)[C@H](CCC(N)=O)NC(=O)[C@H](N)Cc1ccccc1)C(C)C)C(=O)N1CSC[C@H]1C(N)=O [LW02013, D-Phe-Gln-7-Aza-Trp-Ala-Val-Gly-His-Leu-Thz-NH2]
 | 35.7 ± 27.4 nM | CC(C)C[C@H](NC(=O)[C@H](Cc1c[nH]cn1)NC(=O)CNC(=O)[C@@H](NC(=O)[C@H](C)NC(=O)[C@H](Cc1c[nH]c2ccccc12)NC(=O)[C@H](CCC(N)=O)NC(=O)[C@H](N)Cc1ccccc1)C1CCC1)C(=O)N1CSC[C@H]1C(N)=O [LW02019, D-Phe-Gln-Trp-Ala-cyclobutaneacetic acid-Gly-His-Leu-Thz-NH2]
 | > 150 nM and 196 nM | CC(C)C[C@H](NC(=O)[C@H](Cc1c[nH]cn1)NC(=O)CNC(=O)[C@@H](NC(=O)[C@H](C)NC(=O)[C@H](Cc1c[nH]c2ccccc12)NC(=O)[C@H](CCO)NC(=O)[C@H](N)Cc1ccccc1)C(C)C)C(=O)N1CSC[C@H]1C(N)=O [LW02030, D-Phe-Hse-Trp-Ala-Val-Gly-His-Leu-Thz-NH2] (H-[dF][hSer]WAVGHL[Thz]-NH2)
